This passage reports IC50 results from BindingDB's records for patent US20230365627 (Bristol Myers Squibb, 2023).

*1 amine or outer side, *2 acyl side, *3 side chain or, on linkers, in order; H or OH if unused. Where a SMILES comes first, the peptide text is derived from it. Bridges are numbered along the chain shown (N, C = ends). [ ]: non-standard residue; d: D form. X14 = O=C([C@H](CN1Cc2cccc(c2)B2OCC(O)[C@@H](O2)[C@@H](O)[C@H](O)[C@H](O)C1)N[*:1])[*:2]; X13 = O=C([C@H](CCNC[C@@H](O)[C@@H](O)[C@H](O)[C@H](O)C(O)CO)N[*:1])[*:2]; Trp(1-CH2COOH) = N[C@@H](Cc1cn(CC(=O)O)c2ccccc12)C(=O)O; Hyp = O=C(O)[C@@H]1C[C@@H](O)CN1; NMeNle = CCCC[C@H](NC)C(=O)O; NMeA = CN[C@@H](C)C(=O)O

Chain of Programmed cell death 1 ligand/protein 1 (Q9NZQ7 whole entry, the tested form may be a part): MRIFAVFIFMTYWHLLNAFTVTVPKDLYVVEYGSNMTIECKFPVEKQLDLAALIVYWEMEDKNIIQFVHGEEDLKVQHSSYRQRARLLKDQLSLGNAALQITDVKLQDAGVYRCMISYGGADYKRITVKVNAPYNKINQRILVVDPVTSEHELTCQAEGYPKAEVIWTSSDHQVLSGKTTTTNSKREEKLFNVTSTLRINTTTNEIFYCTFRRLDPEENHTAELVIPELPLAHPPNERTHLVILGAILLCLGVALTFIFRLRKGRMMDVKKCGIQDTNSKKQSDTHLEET
Chain of Programmed cell death 1 ligand/protein 1 (Q15116 whole entry, further chain, the tested form may be a part): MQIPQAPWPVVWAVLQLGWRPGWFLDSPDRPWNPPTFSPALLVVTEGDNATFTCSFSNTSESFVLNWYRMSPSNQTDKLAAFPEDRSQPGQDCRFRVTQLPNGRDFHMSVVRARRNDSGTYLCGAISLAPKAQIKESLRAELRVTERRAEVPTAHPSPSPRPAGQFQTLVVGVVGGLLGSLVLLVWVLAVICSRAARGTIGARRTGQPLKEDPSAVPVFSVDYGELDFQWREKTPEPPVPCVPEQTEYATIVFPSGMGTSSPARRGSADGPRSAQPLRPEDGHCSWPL

For this test, the target named is Programmed cell death 1 ligand/protein 1 (Homo sapiens, UniProt Q9NZQ7). In words: Binding of PD-1 to PD-L1 Using Homogenous Time-Resolved Fluorescence (HTRF) Binding Assay. The method, then:
Homogenous Time-Resolved Fluorescence (HTRF) Binding Assay. The interaction of PD-1 and PD-L1 can be assessed using soluble, purified preparations of the extracellular domains of the two proteins. The PD-1 and PD-L1 protein extracellular domains were expressed as fusion proteins with detection tags, for PD-1, the tag was the Fc portion of Immunoglobulin (PD-1-Ig) and for PD-L1 it was the 6 histidine motif (PD-L1-His). All binding studies were performed in an HTRF assay buffer consisting of dPBS supplemented with 0.1% […] bovine serum albumin and 0.05% (v/v) Tween-20. For the h/PD-L1-His binding assay, inhibitors were pre-incubated with PD-L1-His (10 nM final) for 15 m in 4 μl of assay buffer, followed by addition of PD-1-Ig (20 nM final) in 1 μl of assay buffer and further incubation for 15 m. HTRF detection was achieved using europium cryptate-labeled anti-Ig (1 nM final) and allophycocyanin (APC) labeled anti-His (20 nM final). Antibodies were diluted in HTRF detection buffer and 5 μl was dispensed on top of the binding reaction. The reaction mixture was allowed to equilibrate for 30 minutes and the resulting signal (665 nm/620 nm ratio) was obtained using an EnVision fluorometer. Additional binding assays were established between the human proteins PD-1-Ig/PD-L2-His (20 & 5 nM, respectively) and CD80-His/PD-L1-Ig (100 & 10 nM, respectively).
On the technique in general: In TR-FRET formats the signal depends on donor and acceptor labels being close together.
Take `CCCC[C@H]1C(=O)N(C)[C@@H](CCCC)C(=O)N[C@@H](CC(C)C)C(=O)N[C@H](C(=O)NCC(N)=O)CSCC(=O)N[C@@H](Cc2ccc(O)cc2)C(=O)N(C)[C@@H](C)C(=O)N[C@@H](CC(N)=O)C(=O)N2CCC[C@H]2C(=O)N[C@H]2CNC[C@@H](O)[C@@H](O)[C@H](O)[C@@H]3OB(OCC3O)c3ccccc3CNCC[C@H](NC(=O)[C@H](Cc3c[nH]c4ccccc34)NC(=O)[C@@H]3C[C@@H](O)CN3C(=O)[C@H](CC(C)C)NC2=O)C(=O)N[C@@H](Cc2cn(CC(=O)O)c3ccccc23)C(=O)N1C` (some centres undefined) [US20230365627, Compound 1035]: the 50% inhibitory concentration (IC50) – broadly, the midpoint of a concentration-inhibition curve – came to 4 nM. That is a single-digit nanomolar value.

For `CCCC[C@H]1C(=O)N(C)[C@@H](CCCC)C(=O)N[C@@H](CC(C)C)C(=O)N[C@H](C(=O)NCC(N)=O)CSCC(=O)N[C@@H](Cc2ccc(O)cc2)C(=O)N(C)[C@@H](C)C(=O)N[C@@H](CC(N)=O)C(=O)N2CCC[C@H]2C(=O)N[C@H]2CNC[C@@H](O)[C@@H](O)[C@H](O)[C@@H]3OB(OCC3O)c3cccc(c3)CNCC[C@H](NC(=O)[C@H](Cc3c[nH]c4ccccc34)NC(=O)[C@@H]3C[C@@H](O)CN3C(=O)[C@H](CC(C)C)NC2=O)C(=O)N[C@@H](Cc2cn(CC(=O)O)c3ccccc23)C(=O)N1C` (some centres undefined) [US20230365627, Compound 1036], the 50% inhibitory concentration (IC50) was determined as 9.5 nM.

For `CCCC[C@H]1C(=O)N(C)[C@@H](CCCC)C(=O)N[C@@H](CC(C)C)C(=O)N[C@H](C(=O)NCC(N)=O)CSCC(=O)N[C@@H](Cc2ccc(O)cc2)C(=O)N(C)[C@@H](C)C(=O)N[C@@H](CC(N)=O)C(=O)N2CCC[C@H]2C(=O)N[C@H]2CNC[C@@H](O)[C@@H](O)[C@H](O)[C@@H]3OB(OCC3O)c3ccc(cc3)CNCC[C@H](NC(=O)[C@H](Cc3c[nH]c4ccccc34)NC(=O)[C@@H]3C[C@@H](O)CN3C(=O)[C@H](CC(C)C)NC2=O)C(=O)N[C@@H](Cc2cn(CC(=O)O)c3ccccc23)C(=O)N1C` (some centres undefined) [US20230365627, Compound 1037], the IC50 was 9.5 nM.

`CCCC[C@H]1C(=O)N(C)[C@@H](CCCC)C(=O)N[C@@H](CC(C)C)C(=O)N[C@H](C(=O)NCC(N)=O)CSCC(=O)N[C@@H](Cc2ccc(O)cc2)C(=O)N(C)[C@@H](C)C(=O)N[C@@H](CC(N)=O)C(=O)N2CCC[C@H]2C(=O)N[C@@H](CN2Cc3cccc(c3)B3OCC(O)[C@@H](O3)[C@@H](O)[C@H](O)[C@H](O)C2)C(=O)N[C@@H](CC(C)C)C(=O)N2C[C@H](O)C[C@H]2C(=O)N[C@@H](Cc2c[nH]c3ccccc23)C(=O)N[C@@H](CCNC[C@@H](O)[C@@H](O)[C@H](O)[C@H](O)C(O)CO)C(=O)N[C@@H](Cc2cn(CC(=O)O)c3ccccc23)C(=O)N1C` (some centres undefined) [US20230365627, Compound 1040] ({CH2CO}-Y[NMeA]NP[X14]L[Hyp]W[X13][Trp(1-CH2COOH)][NMeNle][NMeNle]LCG-NH2; thioether N-14): the half-maximal inhibitory concentration (IC50) was found to be 5.6 nM.
